In patent publication EP4793274A1, “SALT AND CRYSTAL FORM OF KIF18A INHIBITOR COMPOUND, PREPARATION METHOD THEREFOR AND USE THEREOF” (Hubei Bio-Pharmaceutical Industrial Technological Institute …, priority 2023, dated 2025):
Where a name gives a salt, the structure may show the parent alone.

Assays:
[1] = Solubility at room temperature in water, SGF and FaSSIF (HPLC concentration, pH of filtrate, XRPD of residual solid); settings: for S: solubility: feeding concentration 1 mg/mL; for pH: pH of filtrate
Procedure: 100 mg of NaCl and 50 mg of Triton X-100 were weighed into a 50 mL volumetric flask and then completely dissolved by addition of purified water. 816 µL of 1 M hydrochloric acid was added, and the pH was adjusted to 1.8 with 1 M hydrochloric acid or 1 M NaOH solution. The mixed solution was brought to the volume by addition of purified water.
340 mg of anhydrous NaH2PO4 and 620 mg of NaCl were weighed into a 100 mL volumetric flask, and then completely dissolved by addition of purified water. 55.44 µL of a 50% NaOH solution was then added, and the pH was adjusted to 6.5 with 1 M hydrochloric acid or 1 M NaOH solution. The mixed solution was brought to the volume by addition of purified water. Subsequently, 110 mg of SIF powder was weighed into a 50 mL volumetric flask and completely dissolved in the solution described above, and the mixed solution was brought to the volume.
Solids at a feeding concentration of 1 mg/mL (calculated based on free crystal form) were rotationally mixed with corresponding vehicles at room temperature. […] After sampling at each time point, the samples were centrifuged (at 10000 rpm) and filtered (through a 0.22 µm PTFE filter head), the HPLC concentrations and pH values of the filtrates were determined, and the centrifuged solid samples were subjected to XRPD analysis.

[2] = Dynamic solubility at 37 °C in H2O, SGF, FaSSIF and FeSSIF (HPLC concentration, pH of filtrate, XRPD of residual solid); assay type: physicochemical; settings: listed as Crystal form E of methanesulfonate; for S: solubility: feeding concentration 10 mg/mL; for FC: crystal form change: XRPD of residual solid; for pH: pH of filtrate
Procedure: 0.82 mL of glacial acetic acid and 1.18 g of NaCl were added to a 100 mL volumetric flask and completely dissolved by addition of purified water.
The solubility of each sample in H2O, SGF, FaSSIF, and FeSSIF was determined at different time points (1 h, 2 h, 4 h, and 24 h). […] 137-156. […] Table C-2. Summary of dynamic solubility test results at 37 °C

[3] = Solid state stability (XRPD and HPLC purity); assay type: physicochemical
Excerpt: 167-171. […] Table C-3. Summary of solid state stability evaluation

[4] = Hygroscopicity by dynamic vapor sorption (DVS); assay type: physicochemical; settings: 25 °C/80% RH
Procedure: Dynamic vapor sorption (DVS) curves were acquired on a DVS IntrInsic from Surface Measurement Systems (SMS). The relative humidity at 25 °C was corrected with the deliquescence points of LiCl, Mg(NO3)2, and KCl. Table A-5. DVS test parameters
The percentage changes in mass of the samples when the humidity changed (0% RH to 95% RH) at a constant temperature of 25 °C were collected. 157-166.

[5] = 80 °C/sealed, 1 day, listed as Crystal form E of methanesulfonate

With Cc1cc(-c2cnn(-c3ccc(NS(=O)(=O)CCO)cc3N3CCC4(CC3)CC4)c2)nc(N2CCC(F)(F)CC2)n1 [crystal form C of the hydrochloride] the “S: solubility” value ([1]; FaSSIF, 2 h, listed as Crystal form C of hydrochloride, 120 min) was 120.4 µg/mL, the “S: solubility” value ([1]; FaSSIF, 24 h, listed as Crystal form C of hydrochloride, 1440 min) was 36.3 µg/mL and the “S: solubility” value ([1]; H2O, 24 h, listed as Crystal form C of hydrochloride, 1440 min) was 0.2 µg/mL. The “S: solubility” value ([1]; SGF, 2 h, listed as Crystal form C of hydrochloride, 120 min) was 54.1 µg/mL, the “S: solubility” value ([1]; SGF, 24 h, listed as Crystal form C of hydrochloride, 1440 min) was 18.8 µg/mL and the pH ([1]; FaSSIF, 2 h, listed as Crystal form C of hydrochloride) was 6.3. It also gave a pH ([1]; FaSSIF, 24 h, listed as Crystal form C of hydrochloride) of 6.3, a pH ([1]; H2O, 2 h, listed as Crystal form C of hydrochloride) of 2.7 and a pH ([1]; H2O, 24 h, listed as Crystal form C of hydrochloride) of 2.7. For the same molecule, the pH ([1]; SGF, 2 h, listed as Crystal form C of hydrochloride) was 1.8 and the pH ([1]; SGF, 24 h, listed as Crystal form C of hydrochloride) was 1.8.
In the case of Cc1cc(-c2cnn(-c3ccc(NS(=O)(=O)CCO)cc3N3CCC4(CC3)CC4)c2)nc(N2CCC(F)(F)CC2)n1 [crystal form E of the methanesulfonate], the “S: solubility” value ([2]; FaSSIF, 1 h, 60 min) is reported as 60.4 µg/mL, the “S: solubility” value ([2]; FaSSIF, 2 h, 120 min) is reported as 46.6 µg/mL and the “S: solubility” value ([2]; FaSSIF, 4 h, 240 min) is reported as 35.9 µg/mL. For the same molecule, the “S: solubility” value ([2]; FaSSIF, 24 h, 1440 min) was 18.7 µg/mL, the “S: solubility” value ([2]; FeSSIF, 1 h, 60 min) was 194.4 µg/mL and the “S: solubility” value ([2]; FeSSIF, 2 h, 120 min) was 183.4 µg/mL. For the same molecule, the “S: solubility” value ([2]; FeSSIF, 4 h, 240 min) was 172.5 µg/mL, the “S: solubility” value ([2]; FeSSIF, 24 h, 1440 min) was 89.9 µg/mL and the “S: solubility” value ([2]; H2O, 1 h, 60 min) was 18.5 µg/mL. For the same molecule, the “S: solubility” value ([2]; H2O, 2 h, 120 min) was 14.5 µg/mL, the “S: solubility” value ([2]; H2O, 4 h, 240 min) was 12.4 µg/mL and the “S: solubility” value ([2]; H2O, 24 h, 1440 min) was 4.5 µg/mL. The “S: solubility” value ([2]; SGF, 1 h, 60 min) was 125.1 µg/mL, the “S: solubility” value ([2]; SGF, 2 h, 120 min) was 100.2 µg/mL and the “S: solubility” value ([2]; SGF, 4 h, 240 min) was 84.6 µg/mL. The “S: solubility” value ([2]; SGF, 24 h, 1440 min) was 16.4 µg/mL, the “FC: crystal form change” value ([2]; FaSSIF, 1 h) was “Yes” and the “FC: crystal form change” value ([2]; FaSSIF, 2 h) was “Yes”. For the same molecule, the “FC: crystal form change” value ([2]; FaSSIF, 4 h) was “Yes”, the “FC: crystal form change” value ([2]; FaSSIF, 24 h) was “Yes” and the “FC: crystal form change” value ([2]; FeSSIF, 1 h) was “Yes”. For the same molecule, the “FC: crystal form change” value ([2]; FeSSIF, 2 h) was “Yes”, the “FC: crystal form change” value ([2]; FeSSIF, 4 h) was “Yes” and the “FC: crystal form change” value ([2]; FeSSIF, 24 h) was “Yes”. The “FC: crystal form change” value ([2]; H2O, 1 h) was “Yes”, the “FC: crystal form change” value ([2]; H2O, 2 h) was “Yes” and the “FC: crystal form change” value ([2]; H2O, 4 h) was “Yes”. The “FC: crystal form change” value ([2]; H2O, 24 h) was “Yes”, the “FC: crystal form change” value ([2]; SGF, 1 h) was “Yes” and the “FC: crystal form change” value ([2]; SGF, 2 h) was “Yes”. For the same molecule, the “FC: crystal form change” value ([2]; SGF, 4 h) was “Yes”, the “FC: crystal form change” value ([2]; SGF, 24 h) was “Yes” and the pH ([2]; FaSSIF, 1 h) was 2.78. For the same molecule, the pH ([2]; FaSSIF, 2 h) was 2.76, the pH ([2]; FaSSIF, 4 h) was 2.77 and the pH ([2]; FaSSIF, 24 h) was 2.84. The pH ([2]; FeSSIF, 1 h) was 4.69, the pH ([2]; FeSSIF, 2 h) was 4.68 and the pH ([2]; FeSSIF, 4 h) was 4.70. The pH ([2]; FeSSIF, 24 h) was 4.70, the pH ([2]; H2O, 1 h) was 1.79 and the pH ([2]; H2O, 2 h) was 1.76. It also gave a pH ([2]; H2O, 4 h) of 1.80, a pH ([2]; H2O, 24 h) of 1.76 and a pH ([2]; SGF, 1 h) of 1.49. For the same molecule, the pH ([2]; SGF, 2 h) was 1.46, the pH ([2]; SGF, 4 h) was 1.48 and the pH ([2]; SGF, 24 h) was 1.54. For the same molecule, the “HPLC results Relative to starting (%)” value ([3]; 25 °C/60% RH/open, 1 week) was 100.0%, the “HPLC results Purity (area%)” value ([3]; 25 °C/60% RH/open, 1 week, listed as Crystal form E of methanesulfonate) was 98.39 area% and the “HPLC results Relative to starting (%)” value ([3]; 40 °C/75% RH/open, 1 week) was 100.0%. The “HPLC results Purity (area%)” value ([3]; 40 °C/75% RH/open, 1 week, listed as Crystal form E of methanesulfonate) was 98.39 area%, the “HPLC results Purity (area%)” value [3, 5] was 98.37 area% and the “HPLC results Relative to starting (%)” value [3, 5] was 100.0%. For the same molecule, the “HPLC results Purity (area%)” value ([3]; Starting, listed as Crystal form E of methanesulfonate) was 98.36 area%, the Crystal form ([3]; XRPD after 25 °C/60% RH/open, 1 week, listed as Crystal form E of methanesulfonate) was “Crystal form E of methanesulfonate” and the Crystal form ([3]; XRPD after 40 °C/75% RH/open, 1 week, listed as Crystal form E of methanesulfonate) was “Crystal form E of methanesulfonate”. For the same molecule, the Crystal form ([3]; XRPD after 80 °C/sealed, 1 day, listed as Crystal form E of methanesulfonate) was “Crystal form E of methanesulfonate” and the vapor sorption values [4] was 2.324%.
In the case of Cc1cc(-c2cnn(-c3ccc(NS(=O)(=O)CCO)cc3N3CCC4(CC3)CC4)c2)nc(N2CCC(F)(F)CC2)n1 [free crystal form C], the “S: solubility” value ([1]; FaSSIF, 2 h, 120 min) is reported as 13.6 µg/mL, the “S: solubility” value ([1]; FaSSIF, 24 h, 1440 min) is reported as 3.8 µg/mL and the “S: solubility” value ([1]; SGF, 2 h, 120 min) is reported as 4 µg/mL. For the same molecule, the “S: solubility” value ([1]; SGF, 24 h, 1440 min) was 3.4 µg/mL, the pH ([1]; FaSSIF, 2 h) was 6.5 and the pH ([1]; FaSSIF, 24 h) was 6.5. For the same molecule, the pH ([1]; H2O, 2 h) was 8.7, the pH ([1]; H2O, 24 h) was 7.2 and the pH ([1]; SGF, 2 h) was 1.9. The pH ([1]; SGF, 24 h) was 1.9.
